Experimental data: patent US11143585B2, “Photoelectrical device for concentration detection, method for concentration detection thereof and method for testing an antibiotic susceptibility on bacteria” (priority 2018, dated 2021)

Key:
[1] = system: oxacillin-susceptible Staphylococcus aureus (OSSA); assay: Antibiotic effectiveness test with the photoelectrical device, control sample containing OSSA and oxacillin; type: cell-based; details: oxacillin about 4 μg/ml in TSB, initial 6×10^4 CFU/ml
Protocol: FIG. 3A is an electric current-voltage curve obtained by the photoelectrical device of the present invention for detecting an effectiveness of an antibiotic on bacteria. In the method for testing the effectiveness of an antibiotic on bacteria of the present invention, firstly, a fluid sample containing bacteria and an antibiotic is prepared, wherein the bacterial concentration of the fluid sample is between 10^4 and 10^5 CFU/ml. Use FIG. 3A as an example, the fluid sample to be detected contains an antibiotic: oxacillin, and bacteria: oxacillin-resistant Staphylococcus aureus (ORSA, hereinafter as ORSA for short). There is also another control sample used as a control group containing oxacillin and oxacillin-susceptible Staphylococcus aureus (OSSA, hereinafter as OSSA for short). In FIG. 3A, curve B3 is the background information and is drawn by detecting a sterile fluid sample. […]
(§1) FIG. 3B is a diagram illustrating the relationship between the change rate of electric current and the incubation time measured on the photoelectric device 100 after being incubated for different periods of time based on FIG. 3A, wherein the vertical axis represents the change rate of electric current and its definition is the same as the above mathematical formula (1), while the horizontal axis represents the incubation time (also referred to as incubation period). […]

[2] = system: oxacillin-resistant Staphylococcus aureus (ORSA); assay: Antibiotic effectiveness test with the photoelectrical device, fluid sample containing ORSA and oxacillin; type: cell-based
Protocol: FIG. 3A is an electric current-voltage curve obtained by the photoelectrical device of the present invention for detecting an effectiveness of an antibiotic on bacteria. In the method for testing the effectiveness of an antibiotic on bacteria of the present invention, firstly, a fluid sample containing bacteria and an antibiotic is prepared, wherein the bacterial concentration of the fluid sample is between 10^4 and 10^5 CFU/ml. Use FIG. 3A as an example, the fluid sample to be detected contains an antibiotic: oxacillin, and bacteria: oxacillin-resistant Staphylococcus aureus (ORSA, hereinafter as ORSA for short). There is also another control sample used as a control group containing oxacillin and oxacillin-susceptible Staphylococcus aureus (OSSA, hereinafter as OSSA for short). In FIG. 3A, curve B3 is the background information and is drawn by detecting a sterile fluid sample. Curve OS31 is drawn by detecting the control sample containing OSSA and oxacillin, and curve OR31 is drawn by detecting a fluid sample containing ORSA and oxacillin.
Both the above fluid sample and the control sample are added with oxacillin of a concentration of about 4 μg/ml in the tryptic soy broth (TSB) to incubate OSSA and ORSA respectively, and both of them respectively contain OSSA and ORSA with a bacterial concentration of 6×10^4 CFU/ml. After preparing the above fluid sample and the control sample, the bacteria (ORSA) in the fluid sample and the bacteria (OSSA) in the control sample are incubated, wherein the time for incubating the bacteria can be more than 3 hours, for example, 4 hours. […]
as §1

With `Cc1onc(-c2ccccc2)c1C(=O)N[C@@H]1C(=O)N2[C@@H]1SC(C)(C)[C@@H]2C(=O)O` [oxacillin] the “change in the change rate of electric current of the OSSA sample as incubation time increases” value ([1]; FIG. 3B curve OS32) was “no significant change”, the “inhibition of OSSA reproduction (conclusion from change rate of electric current)” value ([1]; increasing incubation time) was “inhibited by oxacillin and difficult to reproduce” and the “change rate of electric current of the ORSA fluid sample” value ([2]; oxacillin about 4 μg/ml in TSB, initial 6×10^4 CFU/ml, after 4 hours of incubation time, FIG. 3B curve OR32) was “more than 10%”. For the same compound, the “inhibition of ORSA reproduction (conclusion from change rate of electric current)” value ([2]; oxacillin about 4 μg/ml in TSB, initial 6×10^4 CFU/ml, increasing incubation time) was “not inhibited by oxacillin” and the “difference between the change rates of electric current of the ORSA fluid sample and the OSSA control sample” value ([2]; oxacillin about 4 μg/ml, after more than 3 hours of incubation period, FIG. 3B) was ≥ 4%.
